Test results taken from patent US10512700B2, “Radiohalide-labeled targeted diagnostics and therapeutics” (Memorial Sloan Kettering Cancer Center, priority 2014, dated 2019).
Marks after values point to notes of the source that are not given here.

Tests used:
[1] = system: U251 MG tumor bearing mice; assay: Biodistribution; format: in vivo, mouse; conditions: C-2f, i.v., 120 min post injection, unblocked
Experimental: Biodistribution studies were conducted on female nude mice (8-10 weeks old and 20-25 g in weight, n=21) bearing U251 MG subcutaneous xenografts. The radiolabeled preparation (20-30 μCi of compound C-2d (^131I) in 200 μL of a solution 90% PBS 10% PEG300) was administrated via the lateral tail vein. The compound was allowed to circulate for 2 h post injection at which time mice were sacrificed and organs were harvested (n=3). The radioactive content in tissue of interest (blood, tumor, muscle, bone, liver, spleen, kidney, heart, lung, pancreas, brain, skin, small intestine, large intestine, stomach, tail, thyroid and feces) was measured on a Wizard 2470 Automatic Gamma Counter, and the tissue-associated activity was calculated as the mean % ID/g using the following formula: [(activity in the target organ/grams of tissue)/injected dose]×100%.
Biodistribution studies were performed in subcutaneous U251 MG xenograft bearing athymic nude mice (n=12). Mice were divided in two groups (blocked and unblocked) and administered with C-2f (approximately 50 μCi, 45 mCi/μmol in […], 10% EtOH in 0.9% sterile saline) via tail vein injection. […] Mice were sacrificed by CO2 asphyxiation at 120 min post injection and major organs were collected, weighed, and counted in a WIZARD^2 automatic γ-counter (PerkinElmer, Boston, Mass.). The radiopharmaceutical uptake was expressed as a percentage of injected dose per gram (% ID/g) using the following formula: [(activity in the target organ/grams of tissue)/injected dose]×100%.

[2] = system: mice bearing orthotopic U251 MG; assay: PET/CT imaging using C-2f; format: in vivo, mouse
Experimental: Mice bearing orthotopic U251 MG (n=8) were divided in two groups (unblocked and blocked) and administered with C-2f (150 μCi, 45 mCi/μmol in 300 μL 10% EtOH in 0.9% sterile saline) via tail vein injection. […] Approximately 5 min prior to PET acquisition, mice were anesthetized by inhalation of a mixture of isoflurane (Baxter Healthcare, Deerfield, Ill., USA; 2% isoflurane, 2 L/min medical air) and positioned on the scanner bed. Anesthesia was maintained using a 1% isoflurane/O2 mixture. PET data for each mouse was recorded using static scans of 10 minutes and acquired at 30 and 120 minutes post injection. Quantification (see FIG. 8) and % ID/g values were calculated by manually drawing regions of interests in three different frames and determining the average values using ASI Pro VM™ MicroPET Analysis software (Siemens Medical Solutions, Knoxville, Tex.).

[3] = system: orthotopic U251 MG tumor bearing mice; assay: Autoradiography using C-2f; format: in vivo, mouse
Experimental: One day after PET/CT imaging, the same orthotopic U251 MG tumor bearing mice of Example 4.1.3 were administered with C-2f (80 μCi, 45 mCi/μmol in 300 μL 10% EtOH in 0.9% sterile saline) via tail vein injection. […] The mice were sacrificed after 2 hours and brain and muscle tissues harvested. The collected organs were fixed in Tissue-Tek O.C.T. compound (Sakura Finetek, Torrance, Calif.) and flash-frozen in liquid nitrogen and cut into 20 μm sections using a Vibratome Ultra Pro 5000 Cryostat (Vibratome, St. Louis, Mo.). A storage phosphor autoradiography plate (Fujifilm, BAS-MS2325, Fuji Photo Film, Japan) was exposed to the tissue slices overnight at −20° C. and read the following day (images not shown). Relative count intensity of the sections in each image was quantified using ImageJ 1.47 u processing software (see FIGS. 6A and 6B). Tumor/muscle and brain/muscle ratios were calculated using Prism 6.0c (GraphPad Software, La Jolla, Calif.). The same sections were subsequently subjected to H&E staining (hematoxylin-eosin) for morphological evaluation of tissue pathology and to compare the localization of the radiotracer with the location of tumor tissue (images not shown).

[4] = Stability in whole blood (in vitro); format: in vitro ADME; conditions: whole human blood, 37° C., 15 to 240 minutes
Experimental: C-2f was then extracted with 750 μL of MeCN, then centrifuged (5 minutes at 5000 rpm) to pellet blood cells and proteins. The supernatant was collected and prepared for HPLC injection by adding 750 μL mQ H2O and filtering. The blood stability was measured by HPLC analysis (Method A).

Blood half-life = format: in vivo, mouse; conditions: athymic nude mice, tail vein injection
Experimental: The blood half-life was determined by measuring the activity in serial blood samplings. […] Measurements in counts per minute were calculated as the mean % ID/g. The blood half-life was calculated using Prism 6.0c (GraphPad Software, La Jolla, Calif.).
The blood half-life was calculated by measuring the activity of blood samples collected at different time points p.i. […] The collected blood was weighed and counted in a WIZARD^2 automatic γ-counter (PerkinElmer, Boston, Mass.). The blood half-life was calculated using Prism 6.0c (GraphPad Software, La Jolla, Calif.) using a two-phase decay least squares fitting method and expressed as % ID/g.

[5] = half-life of PARP1i-FL (T. Reiner et al., unpublished); conditions: in vivo
[6] = cited from earlier work
V79 cells = conditions: DNA-incorporated; cited from earlier work

With `O=C(c1ccc([18F])cc1)N1CCN(C(=O)c2cc(Cc3n[nH]c(=O)c4ccccc34)ccc2F)CC1` [C-2f (^18F)] the “% ID/g, Brain” value [1] was 0.04±0.01 % ID/g, the “% ID/g, Muscle” value [1] was 0.37±0.09 % ID/g and the “% ID/g, Tumor” value [1] was 1.82±0.21 % ID/g. For the same compound, the “PET retained activity in tumor” value ([2]; animals receiving only C-2f) was 2.15±0.79 % ID/g, the “PET retained activity in tumor” value ([2]; animals that received both olaparib and C-2f) was 0.28±0.01 % ID/g and the “PET retained activity, C-2f only vs olaparib and C-2f” value ([2]; mouse, in vivo) was “eight-fold higher”. For the same compound, the “autoradiography, retention in orthotopic tumor” value ([3]; C-2f only, 2 hours) was 46.66±14.94 AU, the “autoradiography, retention in surrounding brain” value ([3]; C-2f only, 2 hours) was 0.06±0.02 AU and the “autoradiography, muscle tissue” value ([3]; healthy mice) was 1.50±0.31 AU. The “reduction of C-2f by preinjection of olaparib” value ([3]; orthotopic tumor) was 99%, the “autoradiography, retention in orthotopic tumor” value ([3]; preinjection of olaparib) was 0.44±0.41 AU and the “autoradiography, retention in surrounding brain” value ([3]; preinjection of olaparib) was 0.03±0.01 AU. For the same compound, the “autoradiography, muscle tissue” value ([3]; tumor-bearing mice) was 1.36±0.21 AU, the “in vitro blood stability” value [4] was “excellent stability” and the “in vitro blood stability” value ([4]; listed as C-2f) was “no radioactive metabolites were observed”. For the same compound, the alpha blood half-life (Blood half-life) was 1.27 min, the beta blood half-life (Blood half-life) was 31.14 min and the “beta blood half-life, share of phase” value (Blood half-life) was 14.49%. It also gave a weighted blood half-life (Blood half-life; 50 μCi) of 5.6 min.
In the case of `Cc1cc(C)n2c1C=C1C=CC(CCC(=O)N3CCN(C(=O)c4cc(Cc5n[nH]c(=O)c6ccccc56)ccc4F)CC3)=[N+]1[B-]2(F)F` [PARP1i-FL], the tα1/2 [5] is reported as 1.2 min, the “tα1/2, share of phase” value [5] is reported as 73.2% and the tβ1/2 [5] is reported as 88.2 min. The “tβ1/2, share of phase” value [5] was 26.8%, the “weighted t1/2” value [5] was 24.5 min^c and the plasma free fraction [6] was 0.7%^b.
For `O=c1[nH]c(=O)n([C@H]2C[C@H](O)[C@@H](CO)O2)cc1I` [^123I-IdUrd, 5-iodo-2′-deoxy uridine], the RBE (V79 cells) is given as roughly 7.
In the case of `O=c1[nH]c(=O)n([C@H]2C[C@H](O)[C@@H](CO)O2)cc1I` [^125I-IdUrd, 5-iodo-2′-deoxy uridine], the RBE (V79 cells) is listed as “about 8”.
